Structures are written as SMILES.

The record followed here is US8062678B2, “Extractive of Piper laetispicum C.DC., its process and its uses” (priority 2004, dated 2011).

The test system of assay [1] is rat brain synaptosome (re)uptake of noradrenaline (3H-NA). Nature of the assay: Inhibition of brain synaptosome uptake of noradrenaline. It counts as biochemical. The settings on record: positive control drug 0.1 mM; 3H-NA 300 nM, 37° C.; lower CPM = more inhibition.
Procedure: 10 μl of substrate (^3H-5HT, ^3H-NA or ^3H-DA; final reaction concentration: 300 nM) is added in a 4° C. environment and is thoroughly mixed, and the tubes are placed in a 37° C. water bath for a warm bath for 5 minutes. After that, precooled Tris-Krebs buffer is added into each tube to terminate reaction, and the multichannel cell harvestor is immediately used for sucking filtration through fiberglass filter membrane, and the same solution in the same volume is used to wash tubes and filter. The filter membrane is removed and oven dried. The filter membrane is placed in the scintillation vial, methylbenzene scintillation fluid is added, and counting is performed with the β-liquid scintillation counter.
Assay [2] deals with mouse. As to the kind of experiment: Mouse swimming test. The class given is in vivo. As to conditions: 30 mg/kg/d intragastric, 14 days, within 4 minutes, x ± s, n = 10. As for the experimental part: The despair test as put forth by Porsolt et al can serve as the evaluation model for the effects of antidepressant drugs. In this model, a mouse or a rat is placed in a limited and inescapable space for swimming, and the animal can be induced to have motionless status. Such status is a reflection of the animal's despair, and the status can be inhibited by some effective antidepressant drugs.
One (1) hour after the drug is administered on Day 14, the animal is placed into a 10×20 cm glass cylinder with water depth at 8˜10 cm and water temperature at 22˜24° C. Beginning from the 2nd minute, the accumulated time of motionless status within 4 minutes is recorded, and the results are as shown in Table 7.

Assay [3] relates to rat brain synaptosome (re)uptake of dopamine (3H-DA). Nature of the assay: Inhibition of brain synaptosome uptake of dopamine. It counts as biochemical. As to conditions: positive control drug 1 mM; 3H-DA 300 nM, 37° C.; lower CPM = more inhibition. An excerpt:
The physiological mechanism for the […] and dopaminergic functions is similar to that for 5-hydroxytryptamine. Clinically, there are many antidepressant drugs that can block the reuptake of noradrenaline and/or 5-hydroxytryptamine and/or dopamine.
First of all, the method of Whittaker et al (Whittaker V P & Barker L A. The subcellular tractionation of brain tissue with special reference to the preparation of synaptosomes and their component organelles. In: Fried R. ed. In Methods in Neurochemistry, Vol. New York: Marcel Dakker, Inc, 1972) is referred to for preparing brain synaptosome, and the specific procedures are: decapitate the rat and take out the cerebrum quickly, place it in precooled normal saline, and remove cerebral pia mater and vascular tissues. Take cerebral cortex, and place it in cold sugar solution. Use ultrasonic cell disruptor for producing homogenate and centrifuging to obtain refined brain synaptosome for future use. […]

In a further assay the target is T1, MAO-A in mouse brain (Mus musculus, UniProt Q64133).
T1 construct: from tissue; host or cells: mouse brain
T1 sequence (Q64133 1-526): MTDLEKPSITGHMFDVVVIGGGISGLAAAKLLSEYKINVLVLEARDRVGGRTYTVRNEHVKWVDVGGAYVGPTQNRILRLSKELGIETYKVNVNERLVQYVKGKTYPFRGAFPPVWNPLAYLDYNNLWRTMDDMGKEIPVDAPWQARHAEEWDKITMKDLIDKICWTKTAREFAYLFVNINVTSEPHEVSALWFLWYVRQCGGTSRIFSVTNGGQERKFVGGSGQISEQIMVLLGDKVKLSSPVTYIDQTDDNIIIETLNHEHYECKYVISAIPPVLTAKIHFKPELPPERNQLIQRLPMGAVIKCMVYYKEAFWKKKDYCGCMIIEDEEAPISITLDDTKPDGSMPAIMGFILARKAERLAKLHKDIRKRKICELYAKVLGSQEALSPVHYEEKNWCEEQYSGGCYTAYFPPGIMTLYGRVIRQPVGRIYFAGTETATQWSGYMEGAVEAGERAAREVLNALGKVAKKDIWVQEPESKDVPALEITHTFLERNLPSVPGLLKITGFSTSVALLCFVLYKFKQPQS
As to the kind of experiment: Inhibition of monoamine oxidase A in the brains of mice. The class given is in vivo. As to conditions: 25 mg/kg; mouse brain after 14 days; x ± SD, n = 10. An excerpt:
(§1) The biological function of monoamine oxidase (MAO) lies in its adjustment of the level for in vivo endogenous amines (noradrenaline, dopamine and 5-hydroxytryptamine) and exogenous amine substances. Based on its substrate and its inhibitor specificity, monoamine oxidase can be divided into two types (MAO-A and MAO-B). Dopamine and tyramine are two MAO substrates, 5-HT and noradrenaline are Type A substrates, while β-phenethylamine and benzylamine are Type B substrates, and iprazid and tranylcypromine are nonselective inhibitors for MAO.
(§2) The mice are randomized into groups, and based on Table 6, intragastric administration of the corresponding doses of test Drug A (Sample 1-1 in Case of Implementation 1) is performed for each of the groups, which are administered once a day consecutively for 14 days, and normal saline is used as a control at the same time, and the positive control is paxil. One (1) hour after the last administration, the animals are put to death through neck dislocation, and the brain is immediately taken for testing MAO activity.

A further assay has as its target T2, MAO-B in mouse brain (Mus musculus, UniProt Q8BW75).
T2 construct: from tissue; host or cells: mouse brain
T2 sequence (Q8BW75 1-520): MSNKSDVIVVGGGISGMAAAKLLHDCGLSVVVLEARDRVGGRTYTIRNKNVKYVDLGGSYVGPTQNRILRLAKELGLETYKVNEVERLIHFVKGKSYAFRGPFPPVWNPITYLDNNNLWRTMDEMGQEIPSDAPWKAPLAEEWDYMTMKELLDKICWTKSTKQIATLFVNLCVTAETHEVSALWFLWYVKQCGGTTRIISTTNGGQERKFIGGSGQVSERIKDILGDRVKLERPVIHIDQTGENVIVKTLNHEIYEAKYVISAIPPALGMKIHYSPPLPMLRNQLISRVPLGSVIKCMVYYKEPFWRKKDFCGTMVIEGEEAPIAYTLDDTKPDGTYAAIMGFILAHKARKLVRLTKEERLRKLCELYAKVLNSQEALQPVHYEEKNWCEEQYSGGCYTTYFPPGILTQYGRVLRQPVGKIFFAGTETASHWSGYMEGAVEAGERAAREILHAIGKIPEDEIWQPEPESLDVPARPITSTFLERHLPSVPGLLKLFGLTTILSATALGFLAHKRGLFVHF
Nature of the assay: Inhibition of monoamine oxidase B in the brains of mice. The settings on record: 25 mg/kg; mouse brain after 14 days; x ± SD, n = 10. It counts as in vivo.
Source text: as §1, §2

Another assay has as its system rat. Nature of the assay: Rat swimming test. The settings on record: 30 mg/kg/d intragastric, 14 days, 5 minutes swimming, x ± s, n = 10. The class given is in vivo. Here is the method:
After having fasted for 4 hours, the rats are placed in a 40×18 cm glass cylinder with water depth at 15 cm (water temperature at 25° C.) for swimming for 15 minutes, and are dried with a hot blower. Then, based on Table 8, the rats are randomized into 6 groups, and each of the groups receives intragastric administration of the corresponding dose of Drug A (Sample 1-1 in Case of Implementation 1) and B (Sample 10 in Case of Implementation 1), which is administered once a day consecutively for 14 days, and normal saline is used as control at the same time, and positive control is Venlafaxine. One (1) hour after the drug is administered for the last time, the rat swimming test begins, the swimming time is 5 minutes, and the motionless time during the 5 minutes for which they are swimming is recorded, and the results are as shown in Table 8.

Assay [4] has as its system mouse. Nature of the assay: Mouse tail suspension test. The class given is in vivo. As to conditions: 50 mg/kg/d intragastric, 14 days, within 6 minutes, x ± s, n = 10. An excerpt: The tail suspension test is a simple and easy experimental method introduced by Stern et al in 1985 for evaluation of antidepressant drugs. […] Clinically effective antidepressant drugs can reduce the motionless time of the mouse after it cannot successfully escape through its efforts following being suspended at the tail.
The mice are randomized into groups, and each of the groups receives intragastric administration of the corresponding dose of Drag A (Sample 1-1 in Case of Implementation 1), B (Sample 10 in Case of Implementation 1), C (Sample 7 in Case of Implementation 1), D (Sample 3 in Case of Implementation 1) and E (Sample 5 in Case of Implementation 1), which is administered once a day consecutively for 14 days, and normal saline is used as control at the same time, and positive control is Venlafaxine. One (1) hour after the drug is administered for the last time, the mouse tail suspension test is performed, the duration is 6 minutes, and the stationary and motionless time within the 6 minutes is recorded, and the results are as shown in Table 9.

The test system of assay [5] is mouse. As to the kind of experiment: Analgesic effect, writhing test. The class given is in vivo. The settings on record: 50 mg/kg; benzoquinone i.p. 30 minutes after drug; within 10 minutes; x ± s, n = 10. As for the experimental part:
A chemical stimulant with definite solvents and at a definite concentration is injected into the abdominal cavity of the mouse to stimulate splanchnoderm and peritoneum parietale so as to cause deep, large-area and long-time inflammatory pain and result in behavioral reactions in the mouse such as concaving the abdomen, extending the trunk and back limbs and raising the buttocks, which are called the writhing response. […]
The mice are randomized into groups, and are respectively given test drugs based on Table 12, namely Drug A (Sample 1-1 in Case of Implementation 1), C (Sample 7 in Case of Implementation 1) and B (Sample 10 in Case of Implementation 1), and normal saline is used as control at the same time, and positive control group is acetyl salicylic acid. The mice are respectively injected intraperitoneally with 0.20 ml of 0.02% benzoquinone water solution 30 minutes later, and are immediately placed into a box with four sides sealed, and, beginning from the first occurrence of writhing responses in the mice, time is kept for 10 minutes, and the number of writhing responses in the mice is recorded within 10 minutes thereafter, and the results are as shown in Table 12.
(In general: Writhing tests count abdominal constrictions after an irritant is injected.)

Assay [6] has as its system mouse. As to the kind of experiment: Anti-anxiety effect, mouse four board test. It counts as in vivo. As to conditions: 1 mg/kg/d; 30 minutes after drug; within 10 minutes; x ± s, n = 8. Here is the method:
The mice are randomized into groups, and are respectively given test drugs based on Table 10, namely Drug A (Sample 1-1 in Case of Implementation 1), B (Sample 10 in Case of Implementation 1), C (Sample 7 in Case of Implementation 1), F (Sample 9 in Case of Implementation 1) and G (Sample 11 in Case of Implementation 1), and normal saline is used as control, and positive control group is diazepam. The mouse is placed on the boards 30 minutes after the drug is administered, and is made to explore for 15 seconds. After that, whenever the mouse moves from one board to another board, one electric shock is given with amperage at 0.35 mA and duration time at 0.5 s. The mouse should present an obvious escape response because of this, and usually moves across 2 boards or 3 boards, if the mouse continues to run, no electric shock is given for […] thereafter.

`CNCCCN1c2ccccc2CCc2ccccc21` [Desipramine]: the “Inhibition of Monoamine Uptake (CPM) Noradrenaline” value in assay [1] is 1499 CPM.
On to `CNCCC(Oc1ccc(C(F)(F)F)cc1)c1ccccc1` (stereo not drawn) [Fluoxetine], for which the “Accumulated Motionless Time” value with mouse [2] came out at 73.7 ± 17.2 s.
For `Fc1ccc([C@@H]2CCNC[C@H]2COc2ccc3c(c2)OCO3)cc1` [Paxil], the “Inhibition of Monoamine Uptake (CPM) Dopamine” value in [3] came to 1197 CPM. The “MAO-A (OD)” value on MAO-A in mouse brain came to 0.012 ± 0.005 OD. Moreover, the “MAO-B (OD)” value on MAO-B in mouse brain is 0.025 ± 0.008 OD.
`COc1ccc(C(CN(C)C)C2(O)CCCCC2)cc1` (stereo not drawn) [Venlafaxine]: the “Accumulated Motionless Time” value with rat was 211.2 ± 24.7 s; in the assay on mouse [4], 57.5 ± 43.0 s.
Consider `CC(=O)Oc1ccccc1C(=O)O` [acetyl salicylic acid], for which the “Accumulated Number of Writhing Responses” value with mouse [5] was 9.89 ± 1.09.
In the case of `CN1C(=O)CN=C(c2ccccc2)c2cc(Cl)ccc21` [diazepam], the “Accumulated Number of Electric Shocks” value in the assay on mouse [6] is on record as 12.78 ± 2.05.
